According to US20050238777A1, “Condensed palatinose and method for producing the same” (priority 2002, published 2005):

Legend:
[1] = tested on: glucoamylase/maltase enzyme complex (GM complex); assay: Stability with respect to intestinal α-glucosidases: glucoamylase/maltase; format: in vitro ADME, pig; conditions: 1% solution, pH 7.0, 0.7 U enzyme complex, 37° C., incubation time 120 min
Excerpt: (§1) The enzyme complexes saccharase/isomaltase and glucoamylase/maltase that are present on the mucosa in the small intestine in vivo serve to break down disaccharides like maltose and sucrose that reach the small intestine and also to break down maltooligosaccharides to monosaccharides to some degree, and as such these components are absorbed into the blood circulation via the intestinal wall. The enzyme complexes saccharase/isomaltase (SI complex) and glucoamylase/maltase (GM complex) are isolated from a pig intestine by the method of H. […] (solution 2 to solution 6), mixed and incubated at 37° C. The reaction is stopped after 2 h by heating to 95° C. for 15 min. The monosaccharides that have formed and the undegraded saccharides in the relative batches are quantitatively determined by HPAEC.

[2] = biological target: T1, saccharase/isomaltase enzyme complex (SI complex) (Sus scrofa, UniProt P56729); assay: Stability with respect to intestinal α-glucosidases: saccharase/isomaltase; format: in vitro ADME, pig; conditions: 1% solution, pH 7.0, 0.7 U enzyme complex, 37° C., incubation time 120 min
T1 construct: are isolated from a pig intestine by the method of H. Heymann; from tissue; host or cells: pig intestine (mucosa of the small intestine)
T1 sequence (P56729 with tags, fused parts or gaps): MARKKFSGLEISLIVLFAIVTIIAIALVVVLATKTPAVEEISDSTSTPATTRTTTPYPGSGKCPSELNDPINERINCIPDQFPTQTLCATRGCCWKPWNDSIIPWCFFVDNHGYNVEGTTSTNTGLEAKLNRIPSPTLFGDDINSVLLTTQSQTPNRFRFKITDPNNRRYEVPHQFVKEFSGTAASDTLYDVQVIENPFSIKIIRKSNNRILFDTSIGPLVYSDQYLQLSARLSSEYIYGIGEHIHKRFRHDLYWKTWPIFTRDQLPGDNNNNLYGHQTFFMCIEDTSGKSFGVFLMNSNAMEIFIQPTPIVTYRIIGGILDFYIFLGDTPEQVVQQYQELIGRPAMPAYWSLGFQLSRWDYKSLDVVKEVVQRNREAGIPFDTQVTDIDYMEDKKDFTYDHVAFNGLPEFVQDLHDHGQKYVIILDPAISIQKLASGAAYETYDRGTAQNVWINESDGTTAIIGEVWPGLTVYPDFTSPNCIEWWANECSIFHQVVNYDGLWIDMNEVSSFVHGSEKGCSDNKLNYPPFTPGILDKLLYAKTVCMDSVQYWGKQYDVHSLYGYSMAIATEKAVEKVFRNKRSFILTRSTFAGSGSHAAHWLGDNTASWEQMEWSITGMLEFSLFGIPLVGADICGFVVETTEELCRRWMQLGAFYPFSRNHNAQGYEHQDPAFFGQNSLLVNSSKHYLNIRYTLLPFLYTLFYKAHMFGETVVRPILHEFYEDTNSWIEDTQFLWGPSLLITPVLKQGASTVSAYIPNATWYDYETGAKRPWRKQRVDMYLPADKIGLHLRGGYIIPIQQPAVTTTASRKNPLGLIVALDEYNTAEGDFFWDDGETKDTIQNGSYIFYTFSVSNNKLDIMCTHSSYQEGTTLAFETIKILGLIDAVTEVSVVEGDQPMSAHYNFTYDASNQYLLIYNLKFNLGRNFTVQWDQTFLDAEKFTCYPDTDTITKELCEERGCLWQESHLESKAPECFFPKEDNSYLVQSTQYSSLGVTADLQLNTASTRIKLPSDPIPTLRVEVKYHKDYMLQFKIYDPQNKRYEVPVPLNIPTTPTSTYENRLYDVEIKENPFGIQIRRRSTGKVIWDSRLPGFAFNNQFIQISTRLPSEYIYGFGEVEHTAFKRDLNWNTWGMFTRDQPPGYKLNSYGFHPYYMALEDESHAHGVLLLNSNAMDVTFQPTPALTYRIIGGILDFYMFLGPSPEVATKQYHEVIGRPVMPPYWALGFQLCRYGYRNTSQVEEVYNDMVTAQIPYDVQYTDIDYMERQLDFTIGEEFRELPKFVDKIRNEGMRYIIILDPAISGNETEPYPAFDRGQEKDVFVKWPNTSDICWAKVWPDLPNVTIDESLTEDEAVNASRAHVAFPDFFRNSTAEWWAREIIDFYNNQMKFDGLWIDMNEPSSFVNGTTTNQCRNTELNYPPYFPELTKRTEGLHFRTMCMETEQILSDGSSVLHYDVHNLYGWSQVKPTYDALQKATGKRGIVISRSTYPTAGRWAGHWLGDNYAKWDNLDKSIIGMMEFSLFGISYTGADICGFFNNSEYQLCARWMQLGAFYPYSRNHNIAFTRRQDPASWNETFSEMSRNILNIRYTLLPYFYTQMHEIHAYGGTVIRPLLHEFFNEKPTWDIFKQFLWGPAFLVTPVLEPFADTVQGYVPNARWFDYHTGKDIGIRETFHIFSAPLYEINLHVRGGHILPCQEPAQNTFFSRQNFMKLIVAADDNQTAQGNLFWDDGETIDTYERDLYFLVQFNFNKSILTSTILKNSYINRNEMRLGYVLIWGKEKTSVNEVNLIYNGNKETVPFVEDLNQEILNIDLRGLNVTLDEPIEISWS
Excerpt: as §1

[3] = Stability in stomach: hydrolysis rate at pH 2.0, 37° C.; format: physicochemical; conditions: 1% solution, 10 mM hydrochloric acid (pH 2.0)
Description: The stability of a substance in the gastric passage can be simulated by determining the hydrolysis rate at pH 2.0. Sucrose and 1-kestose are used as controls. […] Samples are taken from the reaction batch after […], 120 and 180 min and are analyzed by basic anion exchange chromatography, HPAEC.

| Hydrolysis rate (%), incubation with Glucoamylase/Maltase [1] | Hydrolysis rate (%), incubation with Saccharase/Isomaltase [2] | Hydrolysis rate (%) ([3]; incubation time 0 min) | Hydrolysis rate (%) ([3]; incubation time 60 min) | Hydrolysis rate (%) ([3]; incubation time 120 min) | Hydrolysis rate (%) ([3]; incubation time 180 min) | SMILES |
| --- | --- | --- | --- | --- | --- | --- |
| 96% | 95% |  |  |  |  | OC[C@H]1O[C@H](O[C@H]2[C@H](O)[C@@H](O)C(O)O[C@@H]2CO)[C@H](O)[C@@H](O)[C@@H]1O (mixture of isomers) [Maltose] |
|  |  | 0% | 11% | 25% | 36% | OC[C@H]1O[C@@](CO)(OC[C@@]2(O[C@H]3O[C@H](CO)[C@@H](O)[C@H](O)[C@H]3O)O[C@H](CO)[C@@H](O)[C@@H]2O)[C@@H](O)[C@@H]1O [Example 1-Kestose, 1-Kestose] |
|  | 98% | 0% | 2% | 5% | 8% | OC[C@H]1O[C@@](CO)(O[C@H]2O[C@H](CO)[C@@H](O)[C@H](O)[C@H]2O)[C@@H](O)[C@@H]1O [Sucrose] |
